The values below come from patent publication US20090234162A1, “Radioactive Halogen-Labeled Phenyloxyaniline Derivatives” (Taisho Pharmaceutical Co., Ltd., priority 2005, published 2009).

One series concerns the target T1, intracerebral PBR (Homo sapiens, UniProt P30536).
T1 construct: In imaging the intracerebral PBR distribution of a living human brain with positron emission tomograph (PET); host or cells: living human brain (PET)
The following applies: 11C-labeled ligand, PET, living human brain; cited from earlier work.

Series [1] deals with peripheral benzodiazepine receptor (PBR) (Homo sapiens, UniProt P30536). Particulars: background art, Patent Documents 1 and 2; cited from earlier work.
Sequence of peripheral benzodiazepine receptor (PBR) (P30536 whole entry, species assumed): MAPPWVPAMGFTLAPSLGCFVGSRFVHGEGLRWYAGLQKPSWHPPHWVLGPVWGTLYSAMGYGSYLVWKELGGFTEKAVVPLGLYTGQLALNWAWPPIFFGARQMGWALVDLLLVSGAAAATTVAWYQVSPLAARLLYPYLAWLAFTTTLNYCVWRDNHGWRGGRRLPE
Series [2] concerns the target T2, peripheral benzodiazepine receptors (Rattus norvegicus, UniProt P16257).
T2 construct: from tissue
Nature of the series: Ex vivo autoradiography of rat brain. It counts as in vivo. On the procedure: FIGS. 1 and 2 show cerebral ex vivo autoradiograms taken in 30 minutes after [^131I]2IDAA1106 was administered to a rat. […] In particular, radioactivity levels in the olfactory bulb, choroid plexus and cerebellum decreased remarkably and were equal to or less than 20% of FIG. 1.

[3] abbreviates: rat, brain 30 minutes after administration, FIG. 1.

T1 sequence (P30536 whole entry): as the sequence (P30536 whole entry, species assumed) above

Consider `CCC(C)N(C)C(=O)c1cc2ccccc2c(-c2ccccc2Cl)n1` (stereo not drawn) [PK 11195, N-methyl-N-(1-methylpropyl)-1-(2-chlorophenyl)-isoquinoline-3-carboxamide], for which the “accumulation in the brain” value at intracerebral PBR is on record as “extremely low accumulation in the brain”.
Consider `COc1ccc(OC)c(CN(C(C)=O)c2cc(F)ccc2Oc2ccccc2)c1` [DAA1106, N-(2,5-dimethoxybenzyl)-N-(5-fluoro-2-phenoxyphenyl)acetamide], for which, in series [1], the “affinity as PBR ligand” value was “strong affinity” and the “selectivity as PBR ligand” value was “high selectivity”.
With `COc1ccc([131I])c(CN(C(C)=O)c2cc(F)ccc2Oc2ccccc2)c1` [[^131I]2IDAA1106, N-(2-[^131I]iodo-5-methoxybenzyl)-N-(5-fluoro-2-phenoxyphenyl)acetamide], in series [2] (conclusion from distribution profile and DAA1106 blocking), the specificity as radioligand entry was “specific to peripheral benzodiazepine receptors”. Moreover, in series [2] (rat, 30 minutes, co-administration of DAA1106, FIG. 2 as % of FIG. 1), the “radioactivity levels in the olfactory bulb, choroid plexus and cerebellum relative to FIG. 1” value is recorded as no more than 20%. Also, in series [2] (rat, 30 minutes, co-administration of DAA1106, FIG. 2 versus FIG. 1), the “radioactivity distribution in the whole brain when DAA1106 administered at the same time” value is “decreased in the whole brain”. In addition, in series [2] (setting [3]), the brain permeability characteristics entry is given as “relatively high brain permeability characteristics”; the “radioactivity distribution at the olfactory bulb, choroid plexus and cerebellum” value is reported as “relatively high radioactivity distribution”.
As to `COc1ccc(OCCF)c(CN(C(C)=O)c2cc(F)ccc2Oc2ccccc2)c1` [FEDAA1106, N-[2-(2-fluoro)ethyl-5-methoxybenzyl]-N-(5-fluoro-2-phenoxyphenyl)acetamide], in series [1], the “affinity as PBR ligand” value is “strong affinity” and the “selectivity as PBR ligand” value is “high selectivity”.
Regarding `COc1ccc(CF)c(CN(C(C)=O)c2cc(F)ccc2Oc2ccccc2)c1` [FMDAA1106, N-(2-fluoromethyl-5-methoxybenzyl)-N-(5-fluoro-2-phenoxyphenyl)acetamide], in series [1], the “affinity as PBR ligand” value was “strong affinity” and the “selectivity as PBR ligand” value is “high selectivity”.
